Measured values published in patent US12102639B2, “Imipridones for gliomas” (Oncoceutics, Inc., priority 2017, dated 2024).
“Also recorded” adds a separate entry of the source.

How the values were obtained:
human cancer cells = assay: Viability of human cancer cells at 72 hours post-treatment; assay type: cell-based; details: relative to the potency of ONC201; viability at 72 hours post-treatment
Description: A number of imipridones were prepared based on the syntheses above. Viability of human cancer cells was measured at 72 hours post-treatment with each compound.

HCT116 cells = assay: Anticancer efficacy in HCT116 cells; assay type: cell-based, human; details: HCT116, nanomolar concentrations (FIG. 8)
[1] = system: human colon cancer xenograft; assay: Human colon cancer xenograft-bearing mice; assay type: in vivo; details: xenograft mouse models of colorectal and breast cancer (FIG. 10)
[2] = system: NCI60 cancer cell line panel; assay: NCI60 cancer cell line panel; assay type: cell-based; details: NCI60 panel (FIG. 4)
leukemia cell lines = assay: Leukemia cell lines; assay type: cell-based; details: 55 leukemia cell lines (FIG. 11, 12)
[3] = system: normal cells (MRC5 lung fibroblasts, Hs27a bone marrow cells); assay: In vitro toxicity to normal cells; assay type: cell-based
[4] = system: integrated stress response, Akt/ERK phosphorylation; assay: Integrated stress response and Akt/ERK phosphorylation; assay type: cell-based; details: earlier time points compared to ONC201 (FIG. 9)
MV411 AML cells = assay: MV411 AML xenograft model
MV411 (AML) = assay: Cell viability of MV411 AML cells
[5] = system: acute myeloid leukemia (AML) cell lines; assay: AML cell lines, in vitro efficacy
MOLM14 (AML) = assay: Cell viability of MOLM14 AML cells; details: Homo sapiens, MOLM-14, 72 h

O=C1C2=C(CCN(Cc3ccccc3)C2)N2CCN=C2N1Cc1ccc(C(F)(F)F)cc1 [ONC212]
Relative Potency (human cancer cells): A (A Indicates a potency increase of >2-fold of ONC201) | cell death (HCT116 cells): induced cell death | anti-cancer efficacy [1]: oral and IP anti-cancer efficacy | anti-cancer efficacy [2]: demonstrated anti-cancer efficacy across various tumor types | anti-cancer efficacy (leukemia cell lines): more responsive to ONC212 than ONC201; also recorded: nanomolar range in 55 leukemia cell lines | in vitro toxicity to normal cells [3]: but not normal cells (MRC5); also recorded: non-toxic to normal cells at efficacious concentrations | integrated stress response and Akt/ERK phosphorylation [4]: induces the integrated stress response and inhibits Akt/ERK phosphorylation at nanomolar concentrations | leukemia xenograft tumor growth (MV411 AML cells; 50 mg/kg, oral weekly administration (ONC201 at similar doses)): significantly reduced leukemia xenograft tumor growth | leukemia xenograft tumor growth (MV411 AML cells; biweekly dosing with 25 mg/kg): not efficacious | leukemia xenograft tumor growth (MV411 AML cells; weekly/biweekly dosing with 5 mg/kg): not efficacious | IC50 (MV411 (AML); Homo sapiens, MV4-11, 72 h): 10 nM | efficacy in AML cells resistant to cytarabine (MV411 (AML); MV411, 5 nM-5 μM, 24 h (FIG. 14A)): efficacious | cell viability after 8 hr exposure ([5]; 250 nM, MOLM14 and MV411 AML cells, viability at 96 h): robust reduction in cell viability | potency compared to ONC201 ([5]; AML cell lines, Table 4): up to 400 fold | IC50 (MOLM14 (AML)): 10 nM
